# Results taken from patent US8821568B2, “Implant modified with non-hydroxylated vitamin D precursors” (Numat Biomedical S.L., priority 2008, dated 2014).
# Tests used:
# Type in all cases: cell-based, mouse
# [1] = system: MC3T3-E1 cells; assay: ALP activity in cell monolayer on coated titanium implants; details: Ti implants, day 21
# Experimental: To test the effect of the surface modification, 96-well plates were used. Ti disks were placed into the wells and treatments and UV-activation were performed over there. Cells grown onto untreated polystyrene tissue culture plastic (TCP) were added as a control for all the experiments. Cells were seeded at a density of 30,000 cells/cm^2 and they were maintained in α-MEM supplemented with 10% FCS and antibiotics. Culture media was collected after 48 hours, to test cytotoxicity and the production of the hydroxylated form of vitamin D, 25-D3. Cells were harvested after two days of culture using Trizol reagent (Roche Diagnostics, Mannheim, Germany), to analyze gene expression of several osteoblast differentiation markers and enzymes involved in vitamin D synthesis using real-time RT-PCR. On the other hand, MC3T3-E1 cells were harvested after 21 days to measure calcium content and ALP activity in the cell monolayer.
# Cell monolayer was collected at 21 cell differentiation days and PBS 0.1% Triton X-100 was added to solubilize proteins. Cell lysates were put into freeze/thaw cycles (liquid nitrogen and 37° C. water bath) to improve protein recovery. After centrifugation at 33,000 g for 15 min at 4° C., supernatants acquired were assayed for ALP activity, calcium content and total protein determination. ALP activity was calculated by measuring the cleavage of p-Nitrophenyl Phosphate (pNPP) (Sigma, St. Louis, Mo., USA) in a soluble yellow end product which absorbs at 405 nm. A volume of 100 μl of this substrate was used in combination with 25 μl of each sample supernatant or standard point. The standard curve was prepared from calf intestinal alkaline phosphatase (CIAP, 1 U/μl) (Promega, Madison, Wis., USA) by mixing 1 μl from the stock CIAP with 5 ml of alkaline phosphatase buffer (1:5000 dilution), and then making 1:5 serial dilutions. Once the reaction was carried out, after 30 min in dark at room temperature, it was stopped with the addition of 50 μl of 3 M sodium hydroxide. At this point, absorbance was read at 405 nm.
# Total protein was determined using a BCA protein assay kit (Pierce, Rockford, Ill., USA). For the analysis, cell supernatants were diluted 1:1 in PBS 0.1% Triton X-100. Standard curve and samples were analyzed as described by the manufacturer and reading the absorbance at 562 nm.
# [2] = system: MC3T3-E1 cells; assay: ELISA of 25-D3 and 1,25-D3 released to the culture media, plastic wells; details: TCP, 48 hours, 2×10^−3 to 20 nmols
# Experimental: To test the effect of the different treatments onto the plastic wells, 96-well plates made of polystyrene were used and the treatments with 7-DHC performed directly onto them. Cells grown onto untreated TCP were added as a control for all the experiments. Cells were seeded at a density of 30,000 cells/cm^2 and they were maintained in α-MEM supplemented with 10% FCS and antibiotics. Culture media was collected after 48 hours, to test cytotoxicity and the production of the hydroxylated forms of vitamin D. Cells were harvested after 2 days of culture using Trizol reagent (Roche Diagnostics, Mannheim, Germany), to analyse early gene expression response of several osteoblast differentiation markers and enzymes involved in vitamin D synthesis using real-time RT-PCR.
# 25-D3 and 1,25-D3 released to the culture media after two days of treatment were analyzed by enzyme-linked immunosorbent assay (ELISA). Aliquots from the culture media were centrifuged at 1800 rpm for 5 minutes at 4° C. and supernatants were used for 25-D3 and 1,25-D3 determination following instructions described by the manufacturer (Immunodiagnostic Systems Ltd, Boldon, Tyne and Wear, UK).
# [3] = system: MC3T3-E1 cells; assay: Real-time RT-PCR of hydroxylase enzymes (CYP27A1, CYP27B1), coated titanium implants; details: Ti implants, 48 h
# Experimental: To test the effect of the surface modification, 96-well plates were used. Ti disks were placed into the wells and treatments and UV-activation were performed over there. Cells grown onto untreated polystyrene tissue culture plastic (TCP) were added as a control for all the experiments. Cells were seeded at a density of 30,000 cells/cm^2 and they were maintained in α-MEM supplemented with 10% FCS and antibiotics. Culture media was collected after 48 hours, to test cytotoxicity and the production of the hydroxylated form of vitamin D, 25-D3. […]
# RNA was isolated from cells using a monophasic solution of phenol and guanidine thiocyanate (Trizol, Roche Diagnostics, Mannheim, Germany) according to the manufacturer's protocol. RNA was quantified at 260 nm using a Nanodrop spectrophotometer (NanoDrop Technologies, Wilmington, Del., USA). […]
# To allow relative quantification after PCR, real-time efficiencies were calculated from the given slopes in the LightCycler 480 software (Roche Diagnostics, Mannheim, Germany) using serial dilutions. Relative quantification after PCR was calculated by normalizing target gene concentration in each sample by the concentration mean of the two reference genes in given sample using the Advanced relative quantification method provided by the LightCycler 480 analysis software.
smiles,measurement,setting,value
"CC(C)CCC[C@@H](C)[C@H]1CC[C@H]2C3=CC=C4C[C@@H](O)CC[C@]4(C)[C@H]3CC[C@]12C [7-DHC, 7-dehydrocholesterol]",ALP activity,[1]; UV-treated vs UV-untreated group,significant higher ALP activity
same,ALP activity,"[1]; UV-untreated, percentage of ethanol UV-untreated group set to 100%, mean±SEM",44.75±3.50%
same,"Production of 25-D3 and 1,25-D3 (dose-response)",[2]; activated by UV irradiation,a dose-response was found
same,"Production of 25-D3 and 1,25-D3 (dose-response)",[2]; not UV-treated,no dose-response was detected
same,CYP27B1 gene expression,"[3]; increasing UV exposure time, significant vs UV-untreated at 15 and 30 min",upregulated
same,CYP27A1 mRNA gene expression,"[3]; with UV irradiation time, maximum after 15 min",trend to increase
